Patent US9700531B2, “Composition comprising metformin as active ingredient for preventing or treating inflammatory bowel disease” (CATHOLIC UNIVERSITY INDUSTRY ACADEMIC COOPERATION FOUNDATION, priority 2012, dated 2017)
Entries after “also recorded” stand apart in the source; their conditions may differ.

Experiments:
[1] = system: inflammatory bowel disease-induced animal model; assay: Inflammatory bowel disease animal model (3.5% DSS water for a week): weight, survival, thickness of small intestine, length of large intestine; format: in vivo, C57BL/6(H-2kb) mouse; details: for thickness of the intestine: Metformin 5 mg oral, Etanercept 100 μg subcutaneous or composite, at 3 days after induction
Text: The inventors of the present invention first prepared the animal model with an inflammatory bowel disease in order to identify whether the Metformin of the present invention can treat an inflammatory bowel disease. For an experimental animal, a C57BL/6(H-2kb) mouse was used, and to prepare the animal model with an inflammatory bowel disease, the mouse taken with 3.5% dextran sulfate sodium (DSS) water for a week to prepare an animal model with an inflammatory bowel disease.
The inventors divided the experimental animals into an inflammatory bowel disease-induced animal model group, and an inflammatory bowel disease-induced animal model group, which was administered with Metformin, and for the group being administered with Metformin, 5 mg of Metformin was orally administered at 3 days after the disease was induced.

[2] = system: spleen cells of a normal mouse group; assay: ROS measurement by FACs (ROS antibody, FITC) in spleen cells of a normal mouse group; format: cell-based; details: cells collected at 3 days after treatment
Protocol: The oxidative stress was known to be an important factor involved in the inflammatory responses of various autoimmune diseases. […] Enbrel®) composite and at 3 days later, each cell was collected and reacted with an ROS antibody with a FITC wavelength range, and then, was measured using fluorescence activated cell sorting (FACs).

[3] = system: cell line of human large intestine; assay: Gene expression of inflammatory cytokines in cell line of human large intestine treated with Metformin; format: cell-based
Protocol: The gene expressions of the inflammatory cytokines TNF-α, IL-8, and IL-1b were investigated after the cell line of human large intestine was treated with Metformin.

[4] = system: spleen cells of a normal mouse group; assay: ELISA of cytokines in culture media of treated cells of the normal mouse group; format: cell-based; details: culture media collected at 3 days after treatment
Text: The inventors treated Metformin and the Metformin-Etanercept (Product Name: Enbrel®) composite to the cells of the normal mouse group to identify the effects of Etanercept (Product Name: Enbrel®) and Metformin on the expression of cytokine.

[5] = system: lymph node of the group with an inflammatory bowel disease; assay: Expression of inflammatory cytokines in lymph node of mouse injected with Metformin; format: in vivo
Text: FIG. 7 illustrates the result of measuring the inflammatory cytokine regulations caused by Metformin in the lymph node tissues and cells of the group with an inflammatory bowel disease.

[6] = system: STAT3, mTOR, AMPK, STAT5 in spleen tissue; assay: Signaling molecules in spleen of mouse administered with Metformin (tissue confocal, spleen cell proteins); format: in vivo
[7] = system: Th17 cell and regulatory Treg cell in the spleen; assay: Th17 cells and regulatory Treg cells in spleen of mouse injected with Metformin (confocal assay); format: in vivo
[8] = system: colorectal tissues of the group with an inflammatory bowel disease; assay: Expression of inflammatory cytokines in colorectal tissues and cells of the large intestine of mouse injected with Metformin; format: in vivo
Text: FIGS. 6A-6B illustrate the results of measuring the inflammatory cytokine regulations caused by Metformin in the colorectal tissues and colorectal cells of the group with an inflammatory bowel disease.
Furthermore, the expressions of the inflammatory cytokine IL-10 and TGF-b were increased by Metformin.

[9] = system: spleen cells of a normal mouse group
[10] = 5 mg Metformin orally 3 days after induction, versus control group
[11] = 5 mg Metformin orally, the words describe the control group relative to the Metformin group

Compound: CN(C)C(=N)NC(=N)N [Metformin]
- survival rates (in words) [1, 10]: higher survival rates
- weights (in words) [1, 10]: increase in weights
- survival rate ([1]; 5 mg Metformin orally at 3 days after disease induction, control group had low survival rate): 100%
- length of large intestine (histological findings) [1, 11]: shortened length was observed
- thickness of small intestine (histological findings) [1, 11]: narrower than the group treated with Metformin
- thickness of the intestine ([1]; versus control group): thicker
- ROS inhibition [2]: no ROS inhibitory effect; also recorded: no effects of ROS inhibition
- gene expression of IL-1b [3]: inhibited in a Metformin concentration dependent manner
- gene expression of IL-8 [3]: inhibited in a Metformin concentration dependent manner
- gene expression of TNF-α [3]: inhibited in a Metformin concentration dependent manner
- expression of IL-17 (ELISA) [4]: effective in inhibiting
- gene expression of IL-6 in lymph node [5]: considerable decreases
- gene expression of IL-17 in lymph node [5]: considerable decreases
- gene expression of IL-21 in lymph node [5]: considerable decreases
- gene expression of TNF-α in lymph node [5]: considerable decreases
- activated AMPK ([6]; spleen cell proteins): increased
- phosphorylated STAT3, 705, and 727 ([6]; spleen cell proteins): significantly inhibited
- activity of STA3 in spleen cells ([6]; tissue confocal): considerably inhibited
- activity of mTOR in spleen cells ([6]; tissue confocal): considerably inhibited
- cells with the activated AMPK ([6]; tissue confocal, spleen): increased
- cells with the activated STAT5 ([6]; tissue confocal, spleen): increased
- expressions of Th17 cells in spleen [7]: considerably inhibited
- regulatory T cells that express Foxp3 in spleen [7]: significantly increased
- expression of IL-6 in colorectal tissues (histological findings) [8]: considerable decrease
- expression of IL-8 in colorectal tissues (histological findings) [8]: considerable decrease
- expression of IL-17 in colorectal tissues (histological findings) [8]: considerable decrease
- expression of TNF-α in colorectal tissues (histological findings) [8]: considerable decrease
- gene expressions of the inflammatory cytokines in the cells of the large intestine [8]: considerably inhibited
- Foxp3 (regulatory T cell factor) ([8]; large intestine): increased
- expression of IL-10 ([8]; large intestine): increased
- expression of TGF-b ([8]; large intestine): increased
- toxic effects (MTT assay) [9]: no toxic effects

Compound: Etanercept
- thickness of the intestine ([1]; versus control group): thicker
- ROS inhibition [2]: no ROS inhibitory effect; also recorded: no effects of ROS inhibition
- expression of IL-17 (ELISA) [4]: effective in inhibiting
- toxic effects (MTT assay) [9]: no toxic effects
